In patent US5968910A, “Compositions containing two or three inhibitors of different HIV reverse transcriptases” (priority 1994, dated 1999):
≈ marks a conversion by molar mass, not a printed value. Where two headings read alike, the source gives them in different places.

Assays:
Format in all cases: cell-based
[1] = test system: HIV-1(IIIB); experiment: Knock-out concentrations: breakthrough of HIV-1(IIIB)-induced cytopathicity in CEM cell cultures; conditions: for activity at 0.1 µg/mL / activity at 0.5 µg/mL / activity at 2.5 µg/mL: Human immunodeficiency virus 1, IIIB, CCRF-CEM, read-out: HIV-1-induced cytopathicity in cell culture; for activity at 0.1 µg/mL: 0.1 μg/ml; for activity at 0.5 µg/mL: 0.5 μg/ml; for activity at 2.5 µg/mL: 2.5 μg/ml
In short: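 CEM cells in RPMI 1640 with 10% FBS infected with HIV-1(IIIB) at ~1000× CCID50, subcultured every 3–4 days into fresh uninfected cells with drug held constant for 10 subcultivations (35 days), then ≥5 drug-free passages. Breakthrough scored by syncytium formation. Combinations used the two lowest single-drug starting concentrations.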

[2] = test system: HIV-1(IIIB) (WT); experiment: microbe, parasite or virus in culture; conditions: Human immunodeficiency virus 1, IIIB, CCRF-CEM
In short: (§1)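 Syncytium formation read out after 4 days at 37° C. Cultures: CEM cells, 250,000/ml, infected at 100 50% cell culture infective doses/ml and added to compound dilutions.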

[3] = test system: HIV-1/V(0.1) 101-Ile + 141-Glu; experiment: Sensitivity of mutant HIV-1 strain in CEM cell cultures; conditions: Human immunodeficiency virus 1, CCRF-CEM; Table 5; read-out: EC50
In short: as §1

[4] = test system: HIV-1/III(0.1) 103-Asn; experiment: as above; conditions: Human immunodeficiency virus 1, CCRF-CEM; Table 5; read-out: EC50
In short: as §1

[5] = test system: HIV-1/V(0.5) 103-Asn; experiment: as above; conditions: Human immunodeficiency virus 1, CCRF-CEM; Table 5; read-out: EC50
In short: as §1

[6] = test system: HIV-1/II(0.1) 100-Ile; experiment: as above; conditions: Human immunodeficiency virus 1, CCRF-CEM; Table 5; read-out: EC50
In short: as §1

[7] = test system: HIV-1/TIBO R82150 (100-Ile); experiment: as above; conditions: Human immunodeficiency virus 1, CCRF-CEM; CEM cells, Table 1; read-out: 50% Effective Concentration
In short: as §1

[8] = test system: HIV-1/TIBO R82913 (103-Asn); experiment: as above; conditions: Human immunodeficiency virus 1, CCRF-CEM; CEM cells, Table 1; read-out: 50% Effective Concentration
In short: as §1

[9] = test system: HIV-1/IV(0.1) 103-Thr; experiment: as above; conditions: Human immunodeficiency virus 1, CCRF-CEM; Table 5; read-out: EC50
In short: as §1

[10] = test system: HIV-1/TSAO-m^3 T (138-Lys); experiment: as above; conditions: Human immunodeficiency virus 1, CCRF-CEM; CEM cells, Table 1; read-out: 50% Effective Concentration
In short: as §1

[11] = test system: HIV-1/Nev (106-Ala); experiment: as above; conditions: Human immunodeficiency virus 1, CCRF-CEM; CEM cells, Table 1; read-out: 50% Effective Concentration
In short: as §1

[12] = test system: HIV-1/Pyr (181-Cys); experiment: as above; conditions: Human immunodeficiency virus 1, CCRF-CEM; CEM cells, Table 1; read-out: 50% Effective Concentration
In short: as §1

[13] = test system: HIV-1/I(0.1) 103-Asn; experiment: as above; conditions: Human immunodeficiency virus 1, CCRF-CEM; Table 5; read-out: EC50
In short: as §1

[14] = 936 h, day 39 post infection, compound absent from day 35
[15] = 1008 h, day 42 post infection, compound absent from day 35
[16] = 1104 h, day 46 post infection, compound absent from day 35
[17] = 1176 h, day 49 post infection, compound absent from day 35
[18] = 1272 h, day 53 post infection, compound absent from day 35

## Cc1occc1C(=S)Nc1ccc(Cl)c(C(=O)OCC(C)C)c1 [Compound II]
[1]
  prevention of virus breakthrough, fold more efficient than BHAP: at least 5 fold
  prevention of virus breakthrough, fold more efficient than nevirapine: ≥ 25 fold
[1]; 96 h, day 4 post infection
  activity at 0.1 µg/mL: 0%
  activity at 0.5 µg/mL: 0%
  activity at 2.5 µg/mL: 0%
[1]; 192 h, day 8 post infection
  activity at 0.1 µg/mL: 0%
  activity at 0.5 µg/mL: 0%
  activity at 2.5 µg/mL: 0%
[1]; 264 h, day 11 post infection
  activity at 0.1 µg/mL: 0%
  activity at 0.5 µg/mL: 0%
  activity at 2.5 µg/mL: 0%
[1]; 336 h, day 14 post infection
  activity at 0.1 µg/mL: 12.5%
  activity at 0.5 µg/mL: 0%
  activity at 2.5 µg/mL: 0%
[1]; 408 h, day 17 post infection
  activity at 0.1 µg/mL: 50%
  activity at 0.5 µg/mL: 0%
  activity at 2.5 µg/mL: 0%
[1]; 504 h, day 21 post infection
  activity at 0.1 µg/mL: 100%
  activity at 0.5 µg/mL: 0%
  activity at 2.5 µg/mL: 0%
[1]; 600 h, day 25 post infection
  activity at 0.1 µg/mL: 100%
  activity at 0.5 µg/mL: 0%
  activity at 2.5 µg/mL: 0%
[1]; 672 h, day 28 post infection
  activity at 0.1 µg/mL: 100%
  activity at 0.5 µg/mL: 0%
  activity at 2.5 µg/mL: 0%
[1]; 768 h, day 32 post infection
  activity at 0.1 µg/mL: 100%
  activity at 0.5 µg/mL: 0%
  activity at 2.5 µg/mL: 0%
[1]; 840 h, day 35 post infection
  activity at 0.1 µg/mL: 100%
  activity at 0.5 µg/mL: 0%
  activity at 2.5 µg/mL: 0%
[1]; [14]
  activity at 0.1 µg/mL: 100%
  activity at 0.5 µg/mL: 0%
  activity at 2.5 µg/mL: 0%
[1]; [15]
  activity at 0.1 µg/mL: 100%
  activity at 0.5 µg/mL: 0%
  activity at 2.5 µg/mL: 0%
[1]; [16]
  activity at 0.1 µg/mL: 100%
  activity at 0.5 µg/mL: 0%
  activity at 2.5 µg/mL: 0%
[1]; [17]
  activity at 0.1 µg/mL: 100%
  activity at 0.5 µg/mL: 0%
  activity at 2.5 µg/mL: 0%
[1]; [18]
  activity at 0.1 µg/mL: 100%
  activity at 0.5 µg/mL: 0%
  activity at 2.5 µg/mL: 0%
[1]; tested at 0.1, 0.5 and 2.5 μg/ml, 35 days
  concentration at which virus emerged (virus breakthrough): 0.1 µg/mL
[2]; CEM cells, Table 1, read-out: 50% Effective Concentration
  EC50: 0.01 mg/L (≈ 0.0284 µM)
[2]; HIV-1 (III8), Table 5, read-out: EC50
  EC50: 0.007 mg/L (≈ 0.0199 µM)
[2]; range stated for Compounds I-V together, read-out: 50% inhibitory concentration, HIV-1(IIIB) replication in CEM cells
  IC50: 0.004 to 0.05 mg/L (≈ 0.0114 to 0.142 µM)
[3]
  EC50: 0.06 mg/L (≈ 0.171 µM)
[4]
  EC50: 0.16 mg/L (≈ 0.455 µM)
[5]
  EC50: 0.8 mg/L (≈ 2.27 µM)
[6]
  EC50: 0.5 mg/L (≈ 1.42 µM)
[7]
  EC50: 0.19 mg/L (≈ 0.54 µM)
[8]
  EC50: 0.45 mg/L (≈ 1.28 µM)
[9]
  EC50: 0.4 mg/L (≈ 1.14 µM)
[10]
  EC50: 0.06 mg/L (≈ 0.171 µM)
[11]
  EC50: 0.075 mg/L (≈ 0.213 µM)
[12]
  EC50: 0.07 mg/L (≈ 0.199 µM)
[13]
  EC50: 0.15 mg/L (≈ 0.426 µM)
